# In PMC7395068, “The evolution of strategies to minimise the risk of human drug-induced liver injury (DILI) in drug discovery and development” (Archives of Toxicology, 2020):
# Where two headings read alike, the source gives them in different places.
# Tests used:
# [1] = Plasma free fraction (fu) and unbound Cmax (Cmax,u); format: in vitro ADME, human; conditions: unbound plasma Cmax
# Description: The prediction of DILI severity was evaluated further using the 3D combined HCI assays using plasma-free fraction. The majority of fu values were obtained from literature, when unavailable in-house prediction was utilised. Unbound plasma Cmax concentrations (Cmax,u) were derived by multiplying total plasma Cmax with the corresponding free fraction (fu) for each compound.
# [2] = cited from earlier work
# [3] = test system: HepG2 cells; conditions: cited from earlier work
# [4] = test system: HepG2 cells; conditions: cited from earlier work; remark: listed apart in the source
# [5] = test system: HepG2 cells; conditions: cited from earlier work; remark: listed apart in the source
# [6] = test system: human hepatocytes; conditions: cited from earlier work
# [7] = test system: THLE or HepG2 cells, isolated mitochondria, BSEP; conditions: cited from earlier work
# [8] = test system: PHH; conditions: cited from earlier work
# [9] = test system: hLiMTs; conditions: cited from earlier work
# [10] = test system: PHH spheroids; conditions: cited from earlier work
# [11] = test system: HepG2 C3A spheroid, BSEP, Glu/Gal in HepG2 cells, bioactivation; conditions: cited from earlier work
# [12] = read-out: Human plasma Cmax; total plasma Cmax.tot, median of 9 literature references; cited from earlier work
# [13] = plasma free fraction; cited from earlier work
# [14] = cited from earlier work; remark: listed apart in the source
# [15] = test system: THLE-Null and THLE-3A4 cells; conditions: In vitro Assay; ref Gustafsson 2014; cited from earlier work
# [16] = test system: HepG2 cells, primary human hepatocytes; conditions: In vitro Assay; ref Garside 2014; cited from earlier work
# [17] = test system: Upcyte human hepatocytes; conditions: In vitro Assay; ref Tolosa 2019; cited from earlier work
# [18] = ref Chen 2011; cited from earlier work
# [19] = test system: rBsep; conditions: cited from earlier work
# [20] = test system: hLiMTs; test: Combined HCI (HCS) and cellular ATP 3D assay in hLiMTs; conditions: for AC50 / minimal effective concentration: Homo sapiens
# [21] = test system: HepaRG spheroids; test: Combined HCI (HCS) and cellular ATP 3D assay in HepaRG spheroids; conditions: for AC50 / minimal effective concentration: Homo sapiens
# [22] = In vitro Assay, ref Persson 2013
# [23] = Modeled in vitro assays (cytotoxicity, mitochondrial dysfunction, BSEP), ref Aleo et al. 2019
# [24] = In vitro Assay, ref Proctor 2017
# [25] = Microtissue model structural based (HCI), combined HCS and ATP, MEC < 25 × Cmax.tot cut-off
compound,measurement,setting,value
"CN(C)CCCN1c2ccccc2Sc2ccc(Cl)cc21 [chlorpromazine, reference compound]","Human plasma Cmax,u",[1],47 nM
same,DILI severity category (Chen et al. [2016]),"[2]; LTKB DILIrank category, ref Chen et al. 2016",Less
same,DILI severity category (Chen 2016),"[2]; human DILI classification, LTKB DILIrank, ref Chen et al. 2016",Less
same,DILI severity category,"[2]; human DILI severity, ref Chen et al.",Less
same,"DILI +VE (5-8), DILI -VE (-4)",[2]; ref Chen 2016,+VE
same,DILI severity category,[2]; ref Chen 2016,vLess-DILI-Concern
same,Structural based (HCI),"[3]; In vitro Assay, ref O'Brien 2006",+VE
same,"DILI in vitro assay prediction, O'Brien (2006)","[3]; Structural based (HCI), HepG2, ref O'Brien et al. 2006",+VE (lowest HCI endpoint IC50 (or in the absence of dose–response < 100 µM) < 30 × total human plasma exposure levels (Cmax.tot))
same,Cluser analysis,[4]; [22],+VE
same,Structural based (HCI),[4]; [22],+VE
same,"DILI in vitro assay prediction, Persson (2013)","[4]; Structural based (HCI), HepG2, ref Persson et al. 2013",+VE
same,Structural based (HCI),"[5]; In vitro Assay, ref Tolosa 2012",+VE
same,"DILI in vitro assay prediction, Tolosa (2012)","[5]; Structural based (HCI), HepG2, ref Tolosa et al. 2012",+VE
same,Structural based (HCI),"[6]; In vitro Assay, ref Xu 2008",+VE
same,"DILI in vitro assay prediction, Xu (2008)","[6]; Structural based (HCI), human hepatocytes, ref Xu et al. 2008",+VE
same,Partition Hybrid HRM Score,"[7]; In vitro Assay, ref Aleo 2019",+VE
same,Ro2 Hybrid HRM Score,"[7]; In vitro Assay, ref Aleo 2019",+VE
same,"Partition Hybrid HRM Score ≥4, Aleo (2019)",[7]; [23],+VE (Partition Hybrid HRM Score ≥4)
same,"Partition Hybrid HRM Score ≥8, Aleo (2019)",[7]; [23],-VE
same,"Rule of Two hybrid HRM Score ≥3, Aleo (2019)",[7]; [23],+VE (Rule of Two hybrid HRM Score ≥3)
same,"Rule of Two hybrid HRM Score ≥8, Aleo (2019)",[7]; [23],-VE
same,"PHH/100xCmax, Proctor (2017)","[8]; 2D PHH, ATP, IC50 < 100 × Cmax.tot, ref Proctor et al. 2017",+VE (IC50 < 100 × Cmax.tot)
same,"PHH/100uM, Proctor (2017)","[8]; 2D PHH, ATP, IC50 threshold 100 µM, ref Proctor et al. 2017",+VE (IC50 threshold of 100 µM)
same,PHH ATP <100uM,[8]; [24],+VE (IC50 threshold of 100 µM)
same,hLiMTs ATP <100uM,[9]; [24],+VE (IC50 threshold of 100 µM)
same,"hLiMTs/100xCmax, Proctor (2017)","[9]; hLiMTs, ATP, IC50 < 100 × Cmax.tot, ref Proctor et al. 2017",+VE (IC50 < 100 × Cmax.tot)
same,"hLiMTs/100uM, Proctor (2017)","[9]; hLiMTs, ATP, IC50 threshold 100 µM, ref Proctor et al. 2017",+VE (IC50 threshold of 100 µM)
same,hLiMTs ATP <20 x Cmax,"[10]; In vitro Assay, ref Vorrink 2018",+VE (IC20 < 20 × Cmax.tot cut-off)
same,"DILI in vitro assay prediction, Vorrink (2018)","[10]; PHH spheroids, ATP, 14 days, IC20 < 20 × Cmax.tot, ref Vorrink et al. 2018",+VE (IC20 < 20 × Cmax.tot cut-off)
same,"Bayesian Machine Learning DILI prediction, Williams (2019)","[11]; Bayesian modeling, ref Williams et al. 2019",+VE
same,Bayesian Machine Learning,"[11]; In vitro Assay, ref Williams 2019",+VE
same,Cmax,[12],941 nM
same,fu,[13],0.050
same,Assigned DILI category,"[14]; Chen et al. 2016 or literature alignment, ref Chen et al. 2016",2
same,In vivo DILI,[14]; […],+VE
same,In vivo DILI,[14]; ref Aleo 2019,+VE
same,In vivo DILI,[14]; ref Dawson 2012,+VE
same,In vivo DILI,[14]; ref Garside 2014,+VE
same,In vivo DILI,[14]; ref Gustafsson 2014,+VE
same,In vivo DILI,[14]; ref O'Brien 2006,+VE
same,In vivo DILI,[14]; ref Persson 2013,+VE
same,In vivo DILI,[14]; ref Proctor 2017,+VE
same,In vivo DILI,[14]; ref Tolosa 2012,+VE
same,In vivo DILI,[14]; ref Tolosa 2019,+VE
same,In vivo DILI,[14]; ref Vorrink 2018,+VE
same,In vivo DILI,[14]; ref Williams 2019,+VE
same,In vivo DILI,[14]; ref Xu 2008,+VE
same,THLE-Null,[15],+VE
same,Cluster 1-6 +VE Assay,[16],+VE
same,Upcytes multi donor assay 14day data,[17],+VE
same,DILI Score (FDA) (1-8),[18],2
same,Inhibition of rBsep cutoff<1& cmax u>.2,"[19]; In vitro Assay, ref Dawson 2012",-VE
same,Inhibition of rBsep cutoff<3,[19],+VE
same,AC50,[20]; read-out: ATP endpoint AC50,3.73 µM
same,minimal effective concentration,[20]; read-out: ATP endpoint MEC,2.7 µM
same,AC50,[20]; read-out: HCS endpoint AC50,6.41 µM
same,minimal effective concentration,[20]; read-out: HCS endpoint MEC,2.47 µM
same,DILI prediction hLiMTs (HCS-MEC),[20]; [25],+VE (MEC < 25 × Cmax.tot cut-off)
same,hLiMTs <25x Avg Cmax ATP,"[20]; hLiMTs, ATP endpoint, cut-off <25x Avg Cmax",+ve
same,hLiMTs <100x Avg Cmaxu ATP,"[20]; hLiMTs, ATP endpoint, cut-off <100x Avg Cmaxu",+ve (<100x Avg Cmaxu)
same,hLiMTs <25x Avg Cmax HCS,"[20]; hLiMTs, HCS endpoints, cut-off <25x Avg Cmax",+ve
same,hLiMTs <100x Avg Cmaxu HCS,"[20]; hLiMTs, HCS endpoints, cut-off <100x Avg Cmaxu",+ve (<100x Avg Cmaxu)
same,hLiMTs <25x Avg Cmax All,"[20]; hLiMTs, all endpoints (ATP and HCS), cut-off <25x Avg Cmax",+ve
same,hLiMTs Cmax max All,"[20]; hLiMTs, all endpoints, Cmax max used",+ve
same,hLiMTs Cmax min All,"[20]; hLiMTs, all endpoints, Cmax min used",+ve
same,hLiMTs <10 uM All,"[20]; hLiMTs, all endpoints, cut-off <10 uM",+ve (<10 uM)
same,hLiMTs <100x Avg Cmaxu All,"[20]; hLiMTs, all endpoints, cut-off <100x Avg Cmaxu",+ve (<100x Avg Cmaxu)
same,HepaRG <25x Avg Cmax ATP,"[21]; HepaRG, ATP endpoint, cut-off <25x Avg Cmax",+ve
same,HepaRG <100x Avg Cmaxu ATP,"[21]; HepaRG, ATP endpoint, cut-off <100x Avg Cmaxu",+ve (<100x Avg Cmaxu)
same,HepaRG <25x Avg Cmax HCS,"[21]; HepaRG, HCS endpoints, cut-off <25x Avg Cmax",+ve
same,HepaRG <100x Avg Cmaxu HCS,"[21]; HepaRG, HCS endpoints, cut-off <100x Avg Cmaxu",+ve (<100x Avg Cmaxu)
same,HepaRG <25x Avg Cmax All,"[21]; HepaRG, all endpoints (ATP and HCS), cut-off <25x Avg Cmax",+ve
same,HepaRG Cmax max All,"[21]; HepaRG, all endpoints, Cmax max used",+ve
same,HepaRG Cmax min All,"[21]; HepaRG, all endpoints, Cmax min used",+ve
same,HepaRG <10 uM All,"[21]; HepaRG, all endpoints, cut-off <10 uM",+ve (<10 uM)
same,HepaRG <100x Avg Cmaxu All,"[21]; HepaRG, all endpoints, cut-off <100x Avg Cmaxu",+ve (<100x Avg Cmaxu)
same,AC50,"[21]; HepaRG, read-out: ATP endpoint AC50",6.33 µM
same,minimal effective concentration,"[21]; HepaRG, read-out: ATP endpoint MEC",3.45 µM
same,AC50,"[21]; HepaRG, read-out: HCS endpoint AC50",8.8 µM
same,minimal effective concentration,"[21]; HepaRG, read-out: HCS endpoint MEC",1.72 µM
same,DILI prediction HepaRG spheroids (HCS-MEC),[21]; [25],+VE (MEC < 25 × Cmax.tot cut-off)
